Measurements as given in patent US6362181B1, “Isoquinolones” (Warner-Lambert Company, priority 1996, dated 2002).
Converted amounts (≈) assume the structure as drawn. Read-outs that look alike come from different tables or passages of the source.

What was measured:
B. subtilis RB1 = test: Antibacterial assay, standard microtitration, MIC; type: cell-based; conditions: Gram positive; for MIC: Bacillus subtilis, read-out: Minimum Inhibitory Concentrations, B. subtilis RB1
Description: (§1) The compounds of the present invention were tested against an assortment of gram negative and gram positive organisms using standard microtitration techniques (Cohen, et al., Antimicrob. Agents Chemother., 1985;28:766; Heifetz, et al. Antimicrob. Agents Chemother., 1974;6:124).

E. coli B90 = test: Antibacterial assay, standard microtitration, MIC; type: cell-based; conditions: Gram negative; for MIC: Escherichia coli, read-out: Minimum Inhibitory Concentrations, E. coli B90
Description: as §1

E. coli MC4100 = test: Antibacterial assay, standard microtitration, MIC; type: cell-based; conditions: Gram negative; for MIC: Escherichia coli, read-out: Minimum Inhibitory Concentrations, E. coli MC4100
Description: as §1

E. coli To1C = test: Antibacterial assay, standard microtitration, MIC; type: cell-based; conditions: for MIC: Escherichia coli, TO1C, read-out: Minimum Inhibitory Concentrations, E. coli To1C; for Minimum Inhibitory Concentrations, E. coli To1C: Gram negative
Description: as §1

S. aureus 29213 = test: Antibacterial assay, standard microtitration, MIC; type: cell-based; conditions: Gram positive; for MIC: Staphylococcus aureus, read-out: Minimum Inhibitory Concentrations, S. aureus 29213
Description: as §1

S. pyogenes C203 = test: Antibacterial assay, standard microtitration, MIC; type: cell-based; conditions: Gram positive; for MIC: Streptococcus pyogenes, read-out: Minimum Inhibitory Concentrations, S. pyogenes C203
Description: as §1

E. coli gyrase = molecular target: T1, E. coli gyrase (Escherichia coli, UniProt P0AES4+P0AES6); test: DNA gyrase supercoiling inhibition assay; type: biochemical
T1 construct: purchased Lucent, Ltd., Leicester, UK
Description: The effects of test agents on the activity of DNA gyrase was determined by the supercoiling inhibition assay, following reaction conditions recommended by the enzyme supplier (Lucent, Ltd., Leicester, UK), as follows. Reactions were performed in buffer G (35 mM Tris-HCL (pH 7.5), 24 mM KCl, 4 mM MgCl2, 2 mM DTT, 1.8 mM spermidine, 1 mM ATP, 0.1 mg/mL bovine serum albumin). 0.25 μg of relaxed plasmid pBR322 (Lucent, Ltd., Leicester, UK) was reacted with 1 U E. coli gyrase (Lucent, Ltd., Leicester, UK), in the absence or presence of drugs, for 30 minutes at 37° C. Reactions were stopped by the addition of SDS and proteinase K to respective final concentrations of 1% and 0.5 mg/mL. After an additional 30 minutes at 37° C., one-tenth volume of 10×loading buffer (0.3% bromophenol blue, 16% Ficoll, 10 mM Na2HPO4) was added, and reactions were loaded onto agarose gels and electrophoresed as described above for intercalation assays. The concentration of drug inhibiting 50% of the supercoiling activity of DNA gyrase is given as an IC50 and recorded in Table 2.

E. coli topoisomerase IV = molecular target: T2, E. coli topoisomerase IV (Escherichia coli, UniProt P0AFI2+P20083); test: Topoisomerase IV k-DNA decatenation assay; type: biochemical
T2 construct: made in house; host or cells: E. coli overexpressing strains
Description: Topoisomerase IV was purified from E. coli overexpressing strains and the compounds were assayed according to literature conditions (Journal of Biological Chemistry, 1993;268(32):24481). The k-DNA decatenation assay was used. Briefly, reactions were performed in buffer R (40 mM Tris-HCl (pH 7.5), 6 mM MgCl2, 10 mM DTT, 100 mM potassium glutamate, 40 μM ATP, 50 μg/mL bovine serum albumin, 10 mM NaCl). 0.2 μg of kinetoplast DNA (k-DNA; TopoGen, Columbus, Ohio) was incubated with 5 ng of E. coli topoisomerase IV in the presence or absence of test compounds for 10 minutes at 37° C. Subsequently, one-tenth volume of 10×gel loading buffer (0.3% bromophenol blue, 16% Ficoll, 10 mM Na2HPO4) was added, and samples were loaded onto horizontal 0.8% agarose gels prepared with TBE buffer and containing 0.05 μg/mL of ethidium bromide. Electrophoresis was at 70 V for 2 to 4 hours. Gels were then examined by exposure to UV light. The concentration of drug inhibiting 50% of the decantenating activity of Topoisomerase IV is given as an IC50 and recorded in Table 2.

relaxed plasmid pBR322 = test: DNA intercalation/binding assay; conditions: pBR322 with calf thymus topoisomerase I, 30 minutes at 37° C.; read-out: Drug Concentration causing 50% Intercalation of DNA
Description: Compounds of the present invention were evaluated for their ability to intercalate/bind to DNA, using the procedure described in Nucleic Acids Research, 1987;15(15):6713. Specifically, 0.2 μg of relaxed plasmid pBR322 (Lucent, Ltd., Leicester, UK) was treated with 2 U of calf thymus topoisomerase I (Gibco/BRL, Gaithersburg, Md.) in buffer I (10 mM Tris-HCl (Ph 7.5), 50 mM KCl, 5 mM MgCl2, 1 mM Na2EDTA, 15 μg/mL bovine serum albumin) in the presence or absence of test compounds. Reaction were incubated for 30 minutes at 37° C.; volumes were typically 30 μL. Reactions were terminated by the addition of sodium dodecylsulfate (SDS) to 1% and proteinase K to 0.5 mg/mL final concentrations. After an additional 30 minutes at 37° C., one-tenth volume of 10×concentrated loading buffer (0.3% bromophenol blue, 16% Ficoll, 10 mM Na2HPO4) was added, and samples were loaded onto horizontal 0.8% agarose gels prepared in TAE buffer. Electrophoresis was at 22 V for 14 hours. Gels were then stained by soaking for 1.5 hours in deionized water containing 0.2 μg/mL of ethidium bromide, followed by destaining in deionized water for an additional 1.5 hours. Gels were examined and photographed following exposure to UV light. The concentration of the drug which induced a 50% change in the DNA by intercalation is represented by an intercalation IC50 and is recorded in Table 4.

[1] = supercoiling of relaxed pBR322, 30 minutes at 37° C., read-out: DNA Gyrase IC50
[2] = k-DNA decatenation, 10 minutes at 37° C., read-out: Top IV IC50

T1 sequence (P0AES4 whole entry, one chain of several): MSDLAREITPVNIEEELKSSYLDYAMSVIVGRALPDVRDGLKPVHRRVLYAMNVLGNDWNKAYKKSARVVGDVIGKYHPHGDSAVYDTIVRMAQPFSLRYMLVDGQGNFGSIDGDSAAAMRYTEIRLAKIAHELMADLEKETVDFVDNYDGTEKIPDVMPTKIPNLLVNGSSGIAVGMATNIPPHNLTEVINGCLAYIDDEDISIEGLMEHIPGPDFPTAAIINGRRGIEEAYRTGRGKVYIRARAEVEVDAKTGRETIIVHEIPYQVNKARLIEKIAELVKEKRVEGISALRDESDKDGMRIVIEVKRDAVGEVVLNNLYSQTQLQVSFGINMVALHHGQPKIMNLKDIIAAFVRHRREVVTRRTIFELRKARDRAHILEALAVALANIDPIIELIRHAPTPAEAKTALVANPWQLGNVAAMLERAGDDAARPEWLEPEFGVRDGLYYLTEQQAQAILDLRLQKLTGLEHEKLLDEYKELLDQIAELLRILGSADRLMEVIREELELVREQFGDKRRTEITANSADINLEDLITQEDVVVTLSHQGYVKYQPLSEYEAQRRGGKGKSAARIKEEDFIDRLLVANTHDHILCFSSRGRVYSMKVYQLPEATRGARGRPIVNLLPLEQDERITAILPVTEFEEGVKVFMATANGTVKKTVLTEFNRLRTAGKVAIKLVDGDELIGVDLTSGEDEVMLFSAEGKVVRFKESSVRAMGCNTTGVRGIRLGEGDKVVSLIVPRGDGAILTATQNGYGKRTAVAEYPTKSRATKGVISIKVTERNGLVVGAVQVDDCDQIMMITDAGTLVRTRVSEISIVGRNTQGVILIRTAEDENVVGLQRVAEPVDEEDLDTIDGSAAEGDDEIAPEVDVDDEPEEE
T2 sequence (P0AFI2 whole entry): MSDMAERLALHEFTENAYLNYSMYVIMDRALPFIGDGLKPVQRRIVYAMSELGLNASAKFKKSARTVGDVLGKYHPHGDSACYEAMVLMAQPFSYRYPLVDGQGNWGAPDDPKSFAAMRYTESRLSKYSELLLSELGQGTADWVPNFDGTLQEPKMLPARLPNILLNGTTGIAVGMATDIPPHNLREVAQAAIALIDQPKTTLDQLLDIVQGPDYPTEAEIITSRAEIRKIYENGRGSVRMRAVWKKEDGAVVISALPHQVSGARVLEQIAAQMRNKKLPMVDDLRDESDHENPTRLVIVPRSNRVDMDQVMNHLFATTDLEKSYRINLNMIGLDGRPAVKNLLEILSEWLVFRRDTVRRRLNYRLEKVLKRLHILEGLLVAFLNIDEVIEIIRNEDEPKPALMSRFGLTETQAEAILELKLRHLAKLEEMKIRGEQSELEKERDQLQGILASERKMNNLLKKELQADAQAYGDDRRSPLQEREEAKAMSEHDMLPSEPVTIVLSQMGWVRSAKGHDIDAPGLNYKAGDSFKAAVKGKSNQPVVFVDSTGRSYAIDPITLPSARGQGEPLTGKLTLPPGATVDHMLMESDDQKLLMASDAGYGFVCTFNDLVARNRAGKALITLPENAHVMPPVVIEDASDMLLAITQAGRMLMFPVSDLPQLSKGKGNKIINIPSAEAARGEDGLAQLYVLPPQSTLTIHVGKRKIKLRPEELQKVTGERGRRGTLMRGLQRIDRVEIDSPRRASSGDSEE
T2 sequence (P20083 whole entry): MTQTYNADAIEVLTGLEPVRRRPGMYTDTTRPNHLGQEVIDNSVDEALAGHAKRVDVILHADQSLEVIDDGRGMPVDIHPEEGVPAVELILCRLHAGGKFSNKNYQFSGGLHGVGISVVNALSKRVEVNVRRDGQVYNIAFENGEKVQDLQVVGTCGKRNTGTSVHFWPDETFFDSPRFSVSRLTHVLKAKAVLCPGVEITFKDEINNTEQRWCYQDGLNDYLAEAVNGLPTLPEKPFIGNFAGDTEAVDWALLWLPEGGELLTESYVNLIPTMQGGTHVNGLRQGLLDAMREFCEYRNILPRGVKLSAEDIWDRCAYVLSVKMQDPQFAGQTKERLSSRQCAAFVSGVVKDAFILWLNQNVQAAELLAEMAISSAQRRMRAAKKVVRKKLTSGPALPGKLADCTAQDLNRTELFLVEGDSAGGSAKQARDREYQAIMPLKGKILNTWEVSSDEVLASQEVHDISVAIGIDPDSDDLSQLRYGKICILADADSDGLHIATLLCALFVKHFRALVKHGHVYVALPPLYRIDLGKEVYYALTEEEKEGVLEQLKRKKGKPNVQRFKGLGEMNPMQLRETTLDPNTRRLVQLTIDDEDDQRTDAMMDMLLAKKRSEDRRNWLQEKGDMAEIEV

Molecule	MIC (B. subtilis RB1)	MIC (E. coli B90)	MIC (E. coli MC4100)	MIC (E. coli To1C)	MIC (S. aureus 29213)	MIC (S. pyogenes C203)	IC50 (E. coli gyrase)	IC50 (E. coli topoisomerase IV)	IC50 (relaxed plasmid pBR322)	IC50 (E. coli gyrase; [1])	IC50 (E. coli topoisomerase IV; [2])	melting point	Minimum Inhibitory Concentrations, B. subtilis RB1 (B. subtilis RB1)	Minimum Inhibitory Concentrations, E. coli B90 (E. coli B90)	Minimum Inhibitory Concentrations, E. coli MC4100 (E. coli MC4100)	Minimum Inhibitory Concentrations, E. coli To1C (E. coli To1C)	Minimum Inhibitory Concentrations, S. aureus 29213 (S. aureus 29213)	Minimum Inhibitory Concentrations, S. pyogenes C203 (S. pyogenes C203)	IC50 (E. coli topoisomerase IV; read-out: Top IV IC50)
CN1CCN(c2c(Cl)cc3c4c(cccc24)C(=O)N(O)C3=O)CC1 [Example 98]	8 µg/mL (≈ 23.1 µM)	4 µg/mL (≈ 11.6 µM)	32 µg/mL (≈ 92.5 µM)	4 µg/mL (≈ 11.6 µM)	16 µg/mL (≈ 46.3 µM)	8 µg/mL (≈ 23.1 µM)	15.8 µM	3 µM	19 µM										
CC1(CN)CCN(c2c(Cl)cc3c4c(cccc24)C(=O)N(O)C3=O)C1 (centres unmarked) [Example 89]	1 µg/mL (≈ 2.78 µM)	1 µg/mL (≈ 2.78 µM)	4 µg/mL (≈ 11.1 µM)	0.5 µg/mL (≈ 1.39 µM)	1 µg/mL (≈ 2.78 µM)	2 µg/mL (≈ 5.56 µM)	5.5 µM												
NCC1CCN(c2c(Cl)cc3c4c(cccc24)C(=O)N(O)C3=O)C1 (centres unmarked) [Example 85]	1 µg/mL (≈ 2.89 µM)	0.5 µg/mL (≈ 1.45 µM)	1 µg/mL (≈ 2.89 µM)	0.25 µg/mL (≈ 0.723 µM)	4 µg/mL (≈ 11.6 µM)	4 µg/mL (≈ 11.6 µM)	2.1 µM												
Nc1c(Br)cc2c3c(cccc13)C(=O)N(O)C2=O [Example 26, 6-Amino-5-bromo-2-hydroxy-benzo[de]isoquinoline-1,3-dione]	0.5 µg/mL (≈ 1.63 µM)	0.25 µg/mL (≈ 0.814 µM)	0.5 µg/mL (≈ 1.63 µM)		2 µg/mL (≈ 6.51 µM)	> 64 µg/mL			> 100 µM	7 µM	10 µM								
O=C1c2cccc3c(N4CCOCC4)c([N+](=O)[O-])cc(c23)C(=O)N1O [Example 81]	8 µg/mL (≈ 23.3 µM)	8 µg/mL (≈ 23.3 µM)	> 64 µg/mL	8 µg/mL (≈ 23.3 µM)	32 µg/mL (≈ 93.2 µM)	> 64 µg/mL	19 µM		94 µM			272 to 274 °C							
NC1CCN(c2c(Cl)cc3c4c(cc([N+](=O)[O-])cc24)C(=O)N(O)C3=O)C1.O=C(O)C(F)(F)F (centres unmarked) [Example 115]										0.7 µM			2.0 µg/mL	0.5 µg/mL	8.0 µg/mL	0.5 µg/mL	>64 µg/mL	4.0 µg/mL	9 µM
CN(C)CCN1C(=O)c2cccc3cc(N)cc(c23)C1=O [Amonafide, amonafide, reference compound]	64 µg/mL (≈ 226 µM)	16 µg/mL (≈ 56.5 µM)	64 µg/mL (≈ 226 µM)		128 µg/mL (≈ 452 µM)	4 µg/mL (≈ 14.1 µM)			< 10 µM										
O=C1c2cccc3c4c(cc(c23)C(=O)N1O)OCO4 [Example 122, 2-Hydroxy-5,6-methylenedioxy-benzo[de]isoquinoline-1,3-dione]	2 µg/mL (≈ 7.78 µM)	0.5 µg/mL (≈ 1.94 µM)	2 µg/mL (≈ 7.78 µM)	0.5 µg/mL (≈ 1.94 µM)	8 µg/mL (≈ 31.1 µM)	> 64 µg/mL			> 100 µM	19 µM									
Nc1ccc2c3c(cccc13)C(=O)N(O)C2=O [Example 7, 6-Amino-2-hydroxy-benzo[de]isoquinoline-1,3-dione]	16 µg/mL (≈ 70.1 µM)	4 µg/mL (≈ 17.5 µM)	4 µg/mL (≈ 17.5 µM)	4 µg/mL (≈ 17.5 µM)	8 µg/mL (≈ 35.1 µM)	> 64 µg/mL			> 100 µM										
O=C1c2cccc3cc(F)cc(c23)C(=O)N1O [Example 11, 5-Fluoro-2-hydroxy-benzo[de]isoquinoline-1,3-dione]	8 µg/mL (≈ 34.6 µM)	2 µg/mL (≈ 8.65 µM)	8 µg/mL (≈ 34.6 µM)		64 µg/mL (≈ 277 µM)	> 64 µg/mL			> 100 µM										
6-Hydroximino-2,5-dihydroxy-methyl-benzo[de]isoquinoline-1,3-dione [Example 120]										30 µM	25 µM		>64 µg/mL	2.0 µg/mL	>64 µg/mL	1.0 µg/mL	16 µg/mL	64 µg/mL	
O=C1c2cccc3c([N+](=O)[O-])ccc(c23)C(=O)N1O [Example 2, 2-Hydroxy-6-nitro-benzo[de]isoquinoline-1,3-dione]	4 µg/mL (≈ 15.5 µM)	4 µg/mL (≈ 15.5 µM)	8 µg/mL (≈ 31 µM)		2 µg/mL (≈ 7.75 µM)	4 µg/mL (≈ 15.5 µM)			> 100 µM										
NC1CCN(c2ccc3c4c(cc(Cl)c(Cl)c24)C(=O)N(O)C3=O)C1.O=C(O)C(F)(F)F (centres unmarked) [Example 117]										10 µM			2.0 µg/mL	0.5 µg/mL	2.0 µg/mL	0.25 µg/mL	8.0 µg/mL	8.0 µg/mL	4 µM
Nc1cc2c3c(cccc3c1N1CCCCC1)C(=O)N(O)C2=O [Example 71]	2 µg/mL (≈ 6.42 µM)	4 µg/mL (≈ 12.8 µM)	> 64 µg/mL	4 µg/mL (≈ 12.8 µM)	2 µg/mL (≈ 6.42 µM)	16 µg/mL (≈ 51.4 µM)						244 to 248 °C							
O=C1c2cccc3c(Cl)c(Cl)cc(c23)C(=O)N1O [Example 103, 5,6-Dichloro-2-hydroxy-benzo[de]isoquinoline-1,3-dione]	1 µg/mL (≈ 3.55 µM)	0.5 µg/mL (≈ 1.77 µM)	16 µg/mL (≈ 56.7 µM)	0.5 µg/mL (≈ 1.77 µM)	16 µg/mL (≈ 56.7 µM)	> 64 µg/mL			26 µM	4.9 µM	19 µM								
O=C1c2ccc(N3CCCC3)c3cc(Br)cc(c23)C(=O)N1O [Example 59, 5-Bromo-2-hydroxy-7-(pyrrolidin-1-yl)-benzo[de]isoquinoline-1,3-dione]	0.5 µg/mL (≈ 1.38 µM)	0.06 µg/mL (≈ 0.166 µM)	2 µg/mL (≈ 5.54 µM)	0.06 µg/mL (≈ 0.166 µM)	1 µg/mL (≈ 2.77 µM)	> 64 µg/mL			> 100 µM	2.6 µM									
COc1cc2c3c(cccc3c1N)C(=O)N(O)C2=O [Example 30, 6-Amino-2-hydroxy-5-methoxy-benzo[de]isoquinoline-1,3-dione]	4 µg/mL (≈ 15.5 µM)	4 µg/mL (≈ 15.5 µM)	8 µg/mL (≈ 31 µM)	2 µg/mL (≈ 7.74 µM)	4 µg/mL (≈ 15.5 µM)	64 µg/mL (≈ 248 µM)			> 100 µM										
O=C1c2cccc3cc([N+](=O)[O-])cc(c23)C(=O)N1O [Example 1, 2-Hydroxy-5-nitro-benzo[de]isoquinoline-1,3-dione]	8 µg/mL (≈ 31 µM)	2 µg/mL (≈ 7.75 µM)	4 µg/mL (≈ 15.5 µM)		8 µg/mL (≈ 31 µM)	32 µg/mL (≈ 124 µM)			> 100 µM										
